Reference: patent publication US9445601B2, “Fungicide active substance combinations” (Bayer Intellectual Property GmbH, priority 1997, dated 2016)
Read-outs that look alike come from different tables or passages of the source.

Assays:
Type in all cases: in vivo
Sphaerotheca fuliginea = assay: Sphaerotheca test (cucumber)/protective; conditions: for pest or weed control at 2.5 g/ha: application rate 2.5 g/ha
Method: Sphaerotheca Test (Cucumber)/Protective
(§1) • Solvent: 47 parts by weight of acetone • Emulsifier: 3 parts by weight of alkylaryl polyglycol ether
After the spray coating has dried on, the plants are inoculated with an aqueous spore suspension of Sphaerotheca fuliginea. The plants are then placed in a greenhouse at about 23° C. and a relative atmospheric humidity of about 70%.
Evaluation is carried out 10 days after the inoculation.

Fusarium culmorum = Fusarium culmorum test (wheat)/seed treatment; conditions: dry seed dressing, single active compound, application rate 75 g/ha as printed, about 3 weeks after sowing
Method: Fusarium culmorum Test (Wheat)/Seed Treatment
(§2) The active compounds are applied as a dry seed dressing. This is prepared by extending the respective active compound or the active compound combination with ground minerals to give a finely pulverulent mixture which ensures uniform distribution on the seed surface.
(§3) To dress the seed, the infected seed together with the seed dressing is shaken for 3 minutes in a sealed glass flask.
2×100 corns of wheat are sown at a depth of 1 cm in standard soil and cultivated in a greenhouse at a temperature of about 18° C. and a relative atmospheric humidity of about 95% in seed trays which receive a light regimen of 15 hours per day.
(§4) About 3 weeks after sowing, the plants are evaluated for symptoms. 0% means an efficacy which corresponds to that of the control, whereas an efficacy of 100% means that no infection is observed.

[1] = test system: Erysiphe graminis f. sp. tritici; assay: Erysiphe test (wheat)/curative; conditions: curative, single active compound, 7 days after inoculation
Method: Erysiphe Test (Wheat)/Curative
(§5) • Solvent: 10 parts by weight of N-methyl-pyrrolidone • Emulsifier: 0.6 parts by weight of alkylaryl polyglycol ether
(§6) To produce a suitable preparation of active compound, 1 part by weight of active compound or active compound combination is mixed with the stated amounts of solvent and emulsifier, and the concentrate is diluted with water to the desired concentration, or a commercial formulation of active compound or active compound combination is diluted with water to the desired concentration.
To test for curative activity, young plants are dusted with spores of Erysiphe graminis f. sp. tritici. 48 hours after the inoculation, the plants are sprayed with the active compound preparation at the stated application rate.
(§7) The plants are then placed in a greenhouse at a temperature of about 20° C. and a relative atmospheric humidity of about 80% to promote the development of mildew pustules.
(§8) Evaluation is carried out 7 days after the inoculation. 0% means an efficacy which corresponds to that of the control, whereas an efficacy of 100% means that no infection is observed.

Venturia inaequalis = assay: Venturia test (apple)/protective; conditions: protective, single active compound, application rate 1 g/ha, evaluation 12 days after inoculation
Method: Venturia Test (Apple)/Protective
as §1, §6
To test for protective activity, young plants are sprayed with the active compound preparation at the stated application rate. After the spray coating has dried on, the plants are inoculated with an aqueous konidia suspension of the causative organism of apple scab Venturia inaequalis and then remain in an incubation cabin at about 20° C. and 100% relative atmospheric humidity for one day.
The plants are then placed in a greenhouse at about 21° C. and a relative atmospheric humidity of about 90%.
Evaluation is carried out 12 days after the inoculation. 0% means an efficacy which corresponds to that of the control, whereas an efficacy of 100% means that no infection is observed.

Rhizoctonia solani = Rhizoctonia solani test (cotton)/seed treatment; conditions: dry seed dressing, single active compound, application rate 25 g/ha, evaluation after 8 days
Method: Rhizoctonia solani Test (Cotton)/Seed Treatment
as §2, §3
2×50 corns of seed are sown at a depth of 2 cm in standard soil infected with Rhizoctonia solani, and the seeds are cultivated in a greenhouse at a temperature of about 22° C. in seed trays which receive a light regimen of 15 hours per day.
Evaluation is carried out after 8 days. 0% means an efficacy which corresponds to that of the control, whereas an efficacy of 100% means that no infection is observed.

[2] = test system: Erysiphe graminis f. sp. tritici; assay: Erysiphe test (wheat)/protective; conditions: protective, single active compound, application rate 6.25 g/ha, 7 days after inoculation
Method: Erysiphe Test (Wheat)/Protective
as §5, §6
(§9) To test for protective activity, young plants are sprayed with the active compound preparation at the stated application rate.
After the spray coating has dried on, the plants are dusted with spores of Erysiphe graminis f. sp. tritici.
as §7, §8

Puccinia recondita = assay: Puccinia test (wheat)/protective; conditions: protective, single active compound, application rate 25 g/ha, 10 days after inoculation
Method: Puccinia Test (Wheat)/Protective
as §5, §6
To test for protective activity, young plants are inoculated with a spore suspension of Puccinia recondita in a 0.1% strength aqueous agar solution. After the spray coating had dried on, the plants are sprayed with the active compound preparation at the stated application rate.
The plants remain in an incubation cabin at 20° C. and 100% relative atmospheric humidity for 24 hours.
The plants are then placed in a greenhouse at a temperature of about 20° C. and a relative atmospheric humidity of about 80% to promote the development of rust pustules.
(§10) Evaluation is carried out 10 days after the inoculation. 0% means an efficacy which corresponds to that of the control, whereas an efficacy of 100% means that no infection is observed.

Leptosphaeria nodorum = Leptosphaeria nodorum test (wheat)/protective; conditions: protective, single active compound, application rate 25 g/ha, 10 days after inoculation
Method: Leptosphaeria nodorum Test (Wheat)/Protective
as §5, §6, §9
After the spray coating has dried on, the plants are sprayed with a spore suspension of Leptosphaeria nodorum. The plants remain in an incubation cabin at 20° C. and 100% relative atmospheric humidity for 48 hours.
The plants are then placed in a greenhouse at a temperature of about 15° C. and a relative atmospheric humidity of about 80%.
as §10

Fusarium nivale = Fusarium nivale test (triticale)/seed treatment; conditions: dry seed dressing, single active compound, about 3 weeks after sowing
Method: Fusarium nivale Test (Triticale)/Seed Treatment
as §2, §3
2×100 corns of wheat are sown at a depth of 1 cm in standard soil and cultivated in a greenhouse at a temperature of about 10° C. and a relative atmospheric humidity of about 95% in seed trays which receive a light regimen of 15 hours per day.
as §4

[3] = test system: Erysiphe graminis f. sp. hordei; assay: Erysiphe test (barley)/curative; conditions: curative, single active compound, application rate 25 g/ha, evaluation 7 days after inoculation
Method: Erysiphe Test (Barley)/Curative
as §5, §6
To test for curative activity, young plants are dusted with spores of Erysiphe graminis f. sp. hordei. 48 hours after the inoculation, the plants are sprayed with the active compound preparation at the stated application rate.
(§11) The plants are placed in a greenhouse at a temperature of about 20° C. and a relative atmospheric humidity of about 80% to promote the development of mildew pustules.
as §8

[4] = test system: Erysiphe graminis f. sp. hordei; assay: Erysiphe test (barley)/protective; conditions: protective per Example 4 (table title prints curative), single active compound, application rate 25 g/ha, 7 days after inoculation
Method: Erysiphe Test (Barley)/Protective
as §5, §6, §9
After the spray coating has dried on, the plants are dusted with spores of Erysiphe graminis f. sp. hordei.
as §11, §8

[5] = Podosphaera fuliginea, 240 h, cucumber, protective, single active compound, application rate 25 g/ha, evaluation 10 days after inoculation, read-out: Efficacy in %
[6] = Podosphaera fuliginea, 240 h, cucumber, protective, single active compound, evaluation 10 days after inoculation, read-out: Efficacy in %
[7] = application rate 75 g/ha as printed
[8] = Podosphaera fuliginea, 240 h, cucumber, protective, single active compound, application rate 12.5 g/ha, evaluation 10 days after inoculation, read-out: Efficacy in %

Compound: O=C1c2ccccc2C(=O)N1SC(Cl)(Cl)Cl [(XIX)]
- pest or weed control at 25 g/ha (Sphaerotheca fuliginea; [5]): 0%

Compound: OC(Cc1ccccc1Cl)(Cn1nc[nH]c1=S)C1(Cl)CC1 (centres unmarked) [(I), 2-[2-(1-chlorocyclopropyl)-3-(2-chlorophenyl)-2-hydroxypropyl]-2,4-dihydro-[1,2,4]-triazole-3-thione]
- Efficacy in % (Fusarium culmorum): 32%
- Efficacy in % ([1]; application rate 6.25 g/ha): 25%
- Efficacy in % ([1]; application rate 12.5 g/ha): 50%
- Efficacy in % ([1]; application rate 25 g/ha): 75%
- Efficacy in % (Venturia inaequalis): 1%
- Efficacy in % (Rhizoctonia solani): 19%
- Efficacy in % [2]: 57%
- Efficacy in % (Puccinia recondita): 38%
- Efficacy in % (Leptosphaeria nodorum): 62%
- pest or weed control at 0.5 g/ha (Sphaerotheca fuliginea; Podosphaera fuliginea, 240 h, cucumber, protective, single active compound, application rate 0.5 g/ha, evaluation 10 days after inoculation, read-out: Efficacy in %): 0%
- pest or weed control at 2.5 g/ha (Sphaerotheca fuliginea; [6]): 21%
- Efficacy in % (Fusarium nivale; application rate 25 g/ha): 0%
- Efficacy in % (Fusarium nivale; [7]): 14%
- Efficacy in % [3]: 81%
- Efficacy in % [4]: 83%

Compound: CCC(C)(NC(=O)c1cc(Cl)c(C)c(Cl)c1)C(=O)CCl (centres unmarked) [(XXIV)]
- pest or weed control at 12.5 g/ha (Sphaerotheca fuliginea; [8]): 0%

Compound: COc1ccc(C(=CC(=O)N2CCOCC2)c2ccc(Cl)cc2)cc1OC [(XVIII)]
- pest or weed control at 12.5 g/ha (Sphaerotheca fuliginea; [8]): 0%

Compound: N#Cc1c[nH]cc1-c1cccc2c1OC(F)(F)O2 [(XXIb), 4-(2,2-difluoro-1,3-benzodioxol-7-yl)-1H-pyrrole-3-carbonitrile]
- Efficacy in % ([1]; application rate 6.25 g/ha): 38%

Compound: N#Cc1c(Cl)c(Cl)c(Cl)c(C#N)c1Cl [(XVII)]
- pest or weed control at 25 g/ha (Sphaerotheca fuliginea; [5]): 0%

Compound: Cc1cc(C2CC2)nc(Nc2ccccc2)n1 [(XVIb)]
- Efficacy in % ([1]; application rate 12.5 g/ha): 0%
- pest or weed control at 25 g/ha (Sphaerotheca fuliginea; [5]): 0%

Compound: CC12CC1(C)C(=O)N(c1cc(Cl)cc(Cl)c1)C2=O (centres unmarked) [(XV)]
- pest or weed control at 12.5 g/ha (Sphaerotheca fuliginea; [8]): 0%

Compound: CO/N=C(\C1=NOCCO1)c1ccccc1Oc1ncnc(Oc2ccccc2Cl)c1F [(XIV)]
- Efficacy in % ([1]; application rate 12.5 g/ha): 0%
- Efficacy in % (Puccinia recondita): 94%
- Efficacy in % (Leptosphaeria nodorum): 87%
- pest or weed control at 2.5 g/ha (Sphaerotheca fuliginea; [6]): 22%
- Efficacy in % (Fusarium nivale; [7]): 94%
- Efficacy in % [3]: 75%

Compound: CC(C)(C)C(O)C(Oc1ccc(-c2ccccc2)cc1)n1cncn1 (centres unmarked) [(IIc), 1-(4-phenyl-phenoxy)-3,3-dimethyl-1-(1,2,4-triazol-1-yl)-butan-2-ol]
- Efficacy in % (Fusarium culmorum): 27%
- Efficacy in % (Rhizoctonia solani): 0%
- pest or weed control at 2.5 g/ha (Sphaerotheca fuliginea; [6]): 0%

Compound: zinc propylene-1,2-bis-(dithiocarbamate) [(VI)]
- Efficacy in % (Sphaerotheca fuliginea; cucumber, protective, single active compound, application rate 25 g/ha, evaluation 10 days after inoculation): 0%

Compound: CCCOC(=O)NC(C(=O)NC(C)c1ccc(C)cc1)C(C)C (centres unmarked) [(IX)]
- pest or weed control at 12.5 g/ha (Sphaerotheca fuliginea; [8]): 13%

Compound: CCCN(CC)CC1COC2(CCC(C(C)(C)C)CC2)O1 (centres unmarked) [(XI), 8-t-butyl-2-(N-ethyl-N-n-propyl-amino)-methyl-1,4-dioxaspiro-[5,4]-decane]
- Efficacy in % ([1]; application rate 12.5 g/ha): 0%
- Efficacy in % (Sphaerotheca fuliginea; cucumber, protective, single active compound, application rate 12.5 g/ha, evaluation 10 days after inoculation): 0%

Compound: CC(C)(C)C(O)(CCc1ccc(Cl)cc1)Cn1cncn1 (centres unmarked) [(III)]
- Efficacy in % ([1]; application rate 25 g/ha): 88%
- Efficacy in % (Rhizoctonia solani): 27%
- Efficacy in % [2]: 57%
- pest or weed control at 2.5 g/ha (Sphaerotheca fuliginea; [6]): 50%

Compound: CC(C)(C)C(=O)C(Oc1ccc(Cl)cc1)n1cncn1 (centres unmarked) [(IIa), 1-(4-chloro-phenoxy)-3,3-dimethyl-1-(1,2,4-triazol-1-yl)-butane-2-one]
- pest or weed control at 2.5 g/ha (Sphaerotheca fuliginea; [6]): 37%

Compound: Cc1cc(C)nc(Nc2ccccc2)n1 [(XVIa), pyrimethanil]
- pest or weed control at 25 g/ha (Sphaerotheca fuliginea; [5]): 0%

Compound: CO/N=C(/C(=O)OC)c1ccccc1COc1ccccc1C [(XIII)]
- Efficacy in % ([1]; application rate 6.25 g/ha): 94%
- pest or weed control at 2.5 g/ha (Sphaerotheca fuliginea; [6]): 57%

Compound: CSC(=O)c1cccc2nnsc12 [(X)]
- pest or weed control at 2.5 g/ha (Sphaerotheca fuliginea; [6]): 0%

Compound: CO/C=C(/C(=O)OC)c1ccccc1Oc1cc(Oc2ccccc2C#N)ncn1 [(XII)]
- pest or weed control at 2.5 g/ha (Sphaerotheca fuliginea; [6]): 59%
- Efficacy in % [4]: 92%

Compound: Cc1ccc(N(SC(F)(Cl)Cl)S(=O)(=O)N(C)C)cc1 [(IVb)]
- pest or weed control at 25 g/ha (Sphaerotheca fuliginea; [5]): 0%

Compound: CC1(C(=O)Nc2ccc(O)c(Cl)c2Cl)CCCCC1 [(VIII)]
- pest or weed control at 12.5 g/ha (Sphaerotheca fuliginea; [8]): 0%

Compound: N#Cc1c[nH]cc1-c1cccc(Cl)c1Cl [(XXIa), 4-(2,3-dichlorophenyl)-pyrrole-3-carbonitrile]
- Efficacy in % (Fusarium nivale; application rate 25 g/ha): 0%

Compound: CN(C)S(=O)(=O)N(SC(F)(Cl)Cl)c1ccccc1 [(IVa)]
- pest or weed control at 25 g/ha (Sphaerotheca fuliginea; Podosphaera fuliginea, 240 h, read-out: Efficacy in %): 0%

Compound: CC(C)(C)C(O)C(Oc1ccc(Cl)cc1)n1cncn1 (centres unmarked) [(IIb), 1-(4-chloro-phenoxy)-3,3-dimethyl-1-(1,2,4-triazol-1-yl)-butan-2-ol]
- Efficacy in % ([1]; application rate 25 g/ha): 81%
- pest or weed control at 2.5 g/ha (Sphaerotheca fuliginea; [6]): 80%
